From patent US20250195521A1 (Revolution Medicines, Inc., priority 2020, published 2025)
pEC50, pIC50: −log10 of the molar value.

What was measured:
[1] = biological target: NRAS Q61R (Homo sapiens (Human), UniProt P01111+P62937, Q61R); assay: Ras-Raf disruption/FRET/MOA assay, NRAS Q61R; type: biochemical
Description: (§1) Disruption of B-Raf Ras-Binding Domain (BRAF^RBD) Interaction with K-Ras by Compounds of the Invention (Also Called a FRET Assay or an MOA Assay)
(§2) Note—The following protocol describes a procedure for monitoring disruption of K-Ras G12C (GMP-PNP) binding to BRAF^RBD by a compound of the invention. This protocol may also be executed substituting other Ras proteins or nucleotides, such as K-Ras G12D and K-Ras G13D.
(§3) The purpose of this biochemical assay was to measure the ability of test compounds to facilitate ternary complex formation between a nucleotide-loaded K-Ras isoform and Cyclophilin A; the resulting ternary complex disrupts binding to a BRAF^RBD construct, inhibiting K-Ras signaling through a RAF effector. Data is reported as IC50 values.
(§4) In assay buffer containing 25 mM HEPES pH 7.3, 0.002% Tween20, 0.1% BSA, 100 mM NaCl and 5 mM MgCl2, tagless Cyclophilin A, His6-K-Ras-GMPPNP, and GST-BRAF^RBD were combined in a 384-well assay plate at final concentrations of 25 μM, 12.5 nM, and 50 nM, respectively. Compound was present in plate wells as a 10-point 3-fold dilution series starting at a final concentration of 30 μM. After incubation at 25° C. for 3 hours, a mixture of anti-His Eu—W1024 and anti-GST allophycocyanin was then added to assay sample wells at final concentrations of 10 nM and 50 nM, respectively, and the reaction incubated for an additional 1.5 hours. […] Compounds that facilitate disruption of a K-Ras: RAF complex were identified as those eliciting a decrease in the TR-FRET ratio relative to DMSO control wells.

[2] = biological target: KRAS G12V (Homo sapiens (Human), UniProt P01116+P62937, G12V); assay: Ras-Raf disruption/FRET/MOA assay, KRAS G12V; type: biochemical
How it was run: (§5)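 TR-FRET of nucleotide-loaded (GMP-PNP) His6-Ras (12.5 nM) binding to GST-BRAF RBD (50 nM) with Cyclophilin A (25 μM) in HEPES pH 7.3 buffer; 10-point 3-fold compound series from 30 μM, 3 h at 25 °C, then anti-His Eu/anti-GST APC 1.5 h. IC50 from decreased FRET ratio vs DMSO.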

[3] = test system: AsPC-1 (K-Ras G12D); assay: Potency assay: pERK; type: cell-based, human; settings: Homo sapiens, ASPC1; AsPC-1 KRAS G12D; read-out: pERK EC50
How it was run: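 Cells plated overnight, then exposed 4 h at 37 °C to 10-point 3-fold dilutions of compound, in duplicate. pERK read by AlphaLISA SureFire Ultra p-ERK1/2 lysate assay or by In-Cell Western (pERK antibody, DRAQ5 DNA normalisation). IC50 from 4-parameter sigmoidal fit of signal vs log concentration.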

[4] = biological target: NRAS Q61K (Homo sapiens (Human), UniProt P01111+P62937, Q61K); assay: Ras-Raf disruption/FRET/MOA assay, NRAS Q61K; type: biochemical
Description: as §1, §2, §3, §4

[5] = biological target: NRAS WT (Homo sapiens (Human), UniProt P01111+P62937); assay: Ras-Raf disruption/FRET/MOA assay, NRAS WT; type: biochemical
Description: as §1, §2, §3, §4

[6] = biological target: KRAS G12D (Homo sapiens (Human), UniProt P01116+P62937, G12D); assay: Ras-Raf disruption/FRET/MOA assay, KRAS G12D; type: biochemical
How it was run: as §5

[7] = biological target: KRAS G12C (Homo sapiens (Human), UniProt P01116+P62937, G12C); assay: Ras-Raf disruption/FRET/MOA assay, KRAS G12C; type: biochemical
How it was run: as §5

[8] = biological target: KRAS G12S (Homo sapiens (Human), UniProt P01116+P62937, G12S); assay: Ras-Raf disruption/FRET/MOA assay, KRAS G12S; type: biochemical
How it was run: as §5

[9] = biological target: KRAS WT (Homo sapiens (Human), UniProt P01116+P62937); assay: Ras-Raf disruption/FRET/MOA assay, KRAS WT; type: biochemical
How it was run: as §5

[10] = biological target: KRAS G13C (Homo sapiens (Human), UniProt P01116+P62937, G13C); assay: Ras-Raf disruption/FRET/MOA assay, KRAS G13C; type: biochemical
How it was run: as §5

[11] = biological target: KRAS Q61H (Homo sapiens (Human), UniProt P01116+P62937, Q61H); assay: Ras-Raf disruption/FRET/MOA assay, KRAS Q61H; type: biochemical
Description: as §1, §2, §3, §4

[12] = biological target: KRAS G13D (Homo sapiens (Human), UniProt P01116+P62937, G13D); assay: Ras-Raf disruption/FRET/MOA assay, KRAS G13D; type: biochemical
How it was run: as §5

[13] = biological target: NRAS G12C (Homo sapiens (Human), UniProt P01111+P62937, G12C); assay: Ras-Raf disruption/FRET/MOA assay, NRAS G12C; type: biochemical
How it was run: as §5

Sequence of KRAS Q61H (P01116 other isoform, or with tags, fused parts or gaps Q61H): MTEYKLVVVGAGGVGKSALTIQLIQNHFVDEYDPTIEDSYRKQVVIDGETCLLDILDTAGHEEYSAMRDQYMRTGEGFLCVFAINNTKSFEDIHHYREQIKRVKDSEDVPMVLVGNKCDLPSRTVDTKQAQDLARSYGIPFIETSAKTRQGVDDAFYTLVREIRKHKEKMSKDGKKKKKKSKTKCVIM
Sequence of KRAS Q61H (P62937 whole entry): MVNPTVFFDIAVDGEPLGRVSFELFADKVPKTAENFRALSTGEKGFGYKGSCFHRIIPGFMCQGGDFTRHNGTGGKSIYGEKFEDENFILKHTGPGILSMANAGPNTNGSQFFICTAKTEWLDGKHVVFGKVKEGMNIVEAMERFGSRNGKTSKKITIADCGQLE
Sequence of NRAS Q61R (P01111 whole entry Q61R, the tested form may be a part): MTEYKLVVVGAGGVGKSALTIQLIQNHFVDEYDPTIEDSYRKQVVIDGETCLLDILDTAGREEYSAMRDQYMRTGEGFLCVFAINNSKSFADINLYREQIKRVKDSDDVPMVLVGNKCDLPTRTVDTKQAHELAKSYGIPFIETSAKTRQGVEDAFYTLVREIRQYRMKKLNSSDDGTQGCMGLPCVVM
Sequence of NRAS Q61R (P62937 whole entry, the tested form may be a part): as the sequence (P62937 whole entry) above
Sequence of KRAS G13C (P01116 other isoform, or with tags, fused parts or gaps G13C): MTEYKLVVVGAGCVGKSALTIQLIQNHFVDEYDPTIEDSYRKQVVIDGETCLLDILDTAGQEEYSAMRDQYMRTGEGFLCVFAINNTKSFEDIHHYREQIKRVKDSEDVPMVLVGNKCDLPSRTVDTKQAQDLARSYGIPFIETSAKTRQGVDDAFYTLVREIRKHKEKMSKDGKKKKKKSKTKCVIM
Sequence of KRAS G13C (P62937 whole entry): as the sequence (P62937 whole entry) above
Sequence of KRAS G12V (P01116 other isoform, or with tags, fused parts or gaps G12V): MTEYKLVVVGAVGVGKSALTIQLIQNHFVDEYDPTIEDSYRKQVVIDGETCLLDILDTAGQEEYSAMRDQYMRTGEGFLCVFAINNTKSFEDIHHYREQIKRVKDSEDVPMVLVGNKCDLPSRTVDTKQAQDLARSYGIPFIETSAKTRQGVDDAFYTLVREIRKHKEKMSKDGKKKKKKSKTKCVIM
Sequence of KRAS G12V (P62937 whole entry): as the sequence (P62937 whole entry) above
Sequence of KRAS G12S (P01116 other isoform, or with tags, fused parts or gaps G12S): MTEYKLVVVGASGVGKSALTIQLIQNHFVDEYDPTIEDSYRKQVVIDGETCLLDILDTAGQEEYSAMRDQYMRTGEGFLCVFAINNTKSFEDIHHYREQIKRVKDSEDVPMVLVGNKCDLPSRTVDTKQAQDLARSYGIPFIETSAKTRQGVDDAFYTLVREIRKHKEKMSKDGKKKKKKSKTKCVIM
Sequence of KRAS G12S (P62937 whole entry): as the sequence (P62937 whole entry) above
Sequence of NRAS Q61K (P01111 whole entry Q61K): as the sequence (P01111 whole entry Q61R, the tested form may be a part) above, with R61K counted along it
Sequence of NRAS Q61K (P62937 whole entry): as the sequence (P62937 whole entry) above
Sequence of KRAS G12D (P01116 other isoform, or with tags, fused parts or gaps G12D): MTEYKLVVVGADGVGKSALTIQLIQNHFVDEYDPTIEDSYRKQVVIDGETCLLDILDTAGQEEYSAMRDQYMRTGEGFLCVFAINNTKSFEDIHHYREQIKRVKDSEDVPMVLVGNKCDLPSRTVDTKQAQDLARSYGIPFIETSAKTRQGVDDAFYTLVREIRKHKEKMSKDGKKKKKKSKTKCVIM
Sequence of KRAS G12D (P62937 whole entry): as the sequence (P62937 whole entry) above
Sequence of KRAS G13D (P01116 other isoform, or with tags, fused parts or gaps G13D): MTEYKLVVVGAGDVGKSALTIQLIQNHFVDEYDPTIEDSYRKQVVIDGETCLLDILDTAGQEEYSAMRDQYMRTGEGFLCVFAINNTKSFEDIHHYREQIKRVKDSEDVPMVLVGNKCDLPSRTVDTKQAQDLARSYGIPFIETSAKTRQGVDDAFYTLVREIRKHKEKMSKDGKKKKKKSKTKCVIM
Sequence of KRAS G13D (P62937 whole entry): as the sequence (P62937 whole entry) above
Sequence of KRAS G12C (P01116-2 other isoform, or with tags, fused parts or gaps G12C): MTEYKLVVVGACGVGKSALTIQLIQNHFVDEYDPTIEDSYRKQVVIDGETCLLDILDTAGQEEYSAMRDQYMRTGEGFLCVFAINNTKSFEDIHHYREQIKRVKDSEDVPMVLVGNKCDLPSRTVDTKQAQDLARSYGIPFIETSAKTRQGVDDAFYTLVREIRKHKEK
Sequence of KRAS G12C (P62937 whole entry): as the sequence (P62937 whole entry) above
Sequence of NRAS WT (P01111 whole entry): as the sequence (P01111 whole entry Q61R, the tested form may be a part) above, with R61Q counted along it
Sequence of NRAS WT (P62937 whole entry): as the sequence (P62937 whole entry) above
Sequence of NRAS G12C (P01111 whole entry G12C): as the sequence (P01111 whole entry Q61R, the tested form may be a part) above, with G12C, R61Q counted along it
Sequence of NRAS G12C (P62937 whole entry): as the sequence (P62937 whole entry) above
Sequence of KRAS WT (P01116 other isoform, or with tags, fused parts or gaps): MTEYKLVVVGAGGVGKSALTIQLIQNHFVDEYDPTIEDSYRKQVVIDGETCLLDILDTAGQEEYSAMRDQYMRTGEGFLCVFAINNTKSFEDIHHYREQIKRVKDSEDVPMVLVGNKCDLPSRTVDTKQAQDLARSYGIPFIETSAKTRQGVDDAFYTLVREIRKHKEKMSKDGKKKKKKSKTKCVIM
Sequence of KRAS WT (P62937 whole entry): as the sequence (P62937 whole entry) above

SMILES | pIC50 [1] | pIC50 [2] | pEC50 [3] | pIC50 [4] | pIC50 [5] | pIC50 [6] | pIC50 [7] | pIC50 [8] | pIC50 [9] | pIC50 [10] | pIC50 [11] | pIC50 [12] | pIC50 [13]
CCn1c(-c2cccnc2[C@H](C)OC)c2c3cc(ccc31)-c1cc(O)cc(c1)C[C@H](NC(=O)[C@@H](C(C)C)N(C)C(=O)[C@@]1(C)CCCN1C(=O)[C@H]1CN1)C(=O)N1CCC[C@H](N1)C(=O)OCC(C)(C)C2 [Example 240] | 5.00 to 6.00 | 5.00 to 6.00 | > 5.30 | < 5.00 | 5.00 to 6.00 | 5.00 to 6.00 | 6.00 to 7.00 | 5.00 to 6.00 | 6.00 to 7.00 | 5.00 to 6.00 | 6.00 to 7.00 | 5.00 to 6.00 | 6.00 to 7.00
CCn1c(-c2cccnc2[C@H](C)OC)c2c3cc(ccc31)-c1cc(O)cc(c1)C[C@H](NC(=O)[C@H](C(C)C)N(C)C(=O)[C@@]1(C)CCCN1C(=O)[C@@H]1CN1)C(=O)N1CCC[C@H](N1)C(=O)OCC(C)(C)C2 [Example 241] | 6.00 to 7.00 | 7.00 to 8.00 | > 5.30 | 6.00 to 7.00 | 7.00 to 8.00 | 7.00 to 8.00 | > 8.00 | 7.00 to 8.00 | 7.00 to 8.00 | 7.00 to 8.00 | 7.00 to 8.00 | 7.00 to 8.00 | > 8.00
CCn1c(-c2cccnc2[C@H](C)OC)c2c3cc(ccc31)-c1cc(O)cc(c1)C[C@H](NC(=O)[C@@H](C(C)C)N(C)C(=O)[C@@]1(C)CCCN1C(=O)[C@@H]1CN1)C(=O)N1CCC[C@H](N1)C(=O)OCC(C)(C)C2 [Example 242] | 5.00 to 6.00 | 5.00 to 6.00 | > 5.30 | 5.00 to 6.00 | 6.00 to 7.00 | 6.00 to 7.00 | 6.00 to 7.00 | 6.00 to 7.00 | 6.00 to 7.00 | 5.00 to 6.00 | 6.00 to 7.00 | 6.00 to 7.00 | 6.00 to 7.00
CCn1c(-c2cccnc2[C@H](C)OC)c2c3cc(ccc31)-c1cc(O)cc(c1)C[C@H](NC(=O)[C@H](C(C)C)N(C)C(=O)[C@]1(C)CCCN1C(=O)[C@H]1CN1)C(=O)N1CCC[C@H](N1)C(=O)OCC(C)(C)C2 [Example 243] | 5.00 to 6.00 | 6.00 to 7.00 | > 5.30 | 5.00 to 6.00 | 6.00 to 7.00 | 6.00 to 7.00 | 7.00 to 8.00 | 6.00 to 7.00 | 6.00 to 7.00 | 6.00 to 7.00 | 6.00 to 7.00 | 6.00 to 7.00 | 7.00 to 8.00
